Reference: publication PMC6531917, “A Cell-Permeant Mimetic of NMN Activates SARM1 to Produce Cyclic ADP-Ribose and Induce Non-apoptotic Cell Death” (iScience, 2019)

How the values were obtained:
CD38 [1] = molecular target: T1, CD38 (Homo sapiens, UniProt P28907); assay: inhibition of recombinant CD38 enzyme activity (Figure S5H); assay type: biochemical
T1 construct: recombinant CD38 (reCD38)
T1 sequence (P28907 1-300): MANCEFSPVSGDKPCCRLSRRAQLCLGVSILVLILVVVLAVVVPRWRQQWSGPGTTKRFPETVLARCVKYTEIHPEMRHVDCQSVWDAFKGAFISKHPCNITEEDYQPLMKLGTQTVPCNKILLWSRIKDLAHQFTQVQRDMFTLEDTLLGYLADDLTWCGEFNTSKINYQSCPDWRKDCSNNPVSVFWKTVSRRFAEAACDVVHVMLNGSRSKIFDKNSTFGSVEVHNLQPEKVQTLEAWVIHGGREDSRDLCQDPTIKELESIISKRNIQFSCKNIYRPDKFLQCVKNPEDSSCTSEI

SARM1 [2] = molecular target: T2, SARM1 (Homo sapiens, UniProt Q6SZW1); assay: εNAD NADase assay and HPLC activity assays of immunopurified SARM1 (activation); dose-response in lysate; assay type: biochemical
T2 construct: SARM1-FLAG, immunoprecipitated; SARM1-dN (N-terminal mitochondria localization signal truncated)
T2 sequence (Q6SZW1 28-724): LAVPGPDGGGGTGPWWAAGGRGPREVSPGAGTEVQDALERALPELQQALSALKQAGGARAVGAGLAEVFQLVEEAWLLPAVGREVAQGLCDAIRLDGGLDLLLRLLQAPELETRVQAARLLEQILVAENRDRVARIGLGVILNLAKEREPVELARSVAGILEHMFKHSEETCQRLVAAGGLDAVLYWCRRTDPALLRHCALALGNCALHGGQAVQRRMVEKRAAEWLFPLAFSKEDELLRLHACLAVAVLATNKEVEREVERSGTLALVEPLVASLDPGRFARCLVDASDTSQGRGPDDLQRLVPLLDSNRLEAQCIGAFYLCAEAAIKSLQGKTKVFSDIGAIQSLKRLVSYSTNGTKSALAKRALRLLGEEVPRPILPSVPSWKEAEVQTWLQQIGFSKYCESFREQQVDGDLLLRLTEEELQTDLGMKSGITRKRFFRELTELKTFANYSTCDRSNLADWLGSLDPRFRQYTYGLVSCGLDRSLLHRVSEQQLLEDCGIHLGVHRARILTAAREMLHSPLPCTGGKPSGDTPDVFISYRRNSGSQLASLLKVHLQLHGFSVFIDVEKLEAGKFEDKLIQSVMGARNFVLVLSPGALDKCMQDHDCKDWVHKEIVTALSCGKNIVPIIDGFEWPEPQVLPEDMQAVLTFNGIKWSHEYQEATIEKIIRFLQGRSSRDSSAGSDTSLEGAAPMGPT

CD38 [3] = molecular target: T1, CD38; assay: inhibition of recombinant CD38 enzyme activity (Figure S5H); assay type: biochemical; remark: listed apart in the source
SARM1 [4] = molecular target: SARM1 (Homo sapiens, UniProt Q6SZW1); assay: biochemical

NC(=O)c1ccc[n+]([C@@H]2O[C@H](COP(=O)(O)O)[C@@H](O)[C@H]2O)c1 [NMN]
inhibition of recombinant CD38 enzyme activity (Figure S5H) (CD38 [1]): In contrast to SARM1, recombinant CD38 (reCD38) was inhibited by both NMN (Figure S5H) and CZ-48
EC50 (SARM1 [2]): ~50 µM

NC(=O)c1ccc[n+]([C@@H]2O[C@H](COP(O)(O)=S)[C@@H](O)[C@@H]2F)c1 [CZ-48]
IC50 (CD38 [3]): ~10 µM
EC50 (SARM1 [4]): ~50 µM
